Tests used:
[1] = test system: hiPSC-CMs (iCell2 Cardiomyocytes) 2D monolayers; assay: Contractility measurements using video imaging (ContractilityTool / MUSCLEMOTION); format: cell-based, human; settings: Homo sapiens, Cardiomyocyte, 0.5 h, 30 min, delta over DMSO 0.1%
Procedure, shortened: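 Monolayers on fibronectin or Matrix Plus coating, tested on days 5–6 in serum-free medium. Four concentrations, one per well, n = 8, with vehicle control.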

[2] = test system: hiPSC-CMs (iCell2 Cardiomyocytes) 2D monolayers; assay: Membrane potential (action potential) recordings with FluoVolt voltage-sensitive dye on the CellOPTIQ platform; format: cell-based, human; settings: for activity at 0.3 µM / activity at 1 µM / activity at 3 µM / activity at 10 µM: Homo sapiens, Cardiomyocyte, 0.5 h, 30 min, delta over DMSO 0.1%; for electrical activity of the monolayers at higher concentrations: FM and MM
Procedure, shortened: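 iCell2 hiPSC-CM monolayers (50,000 cells/well on fibronectin or Matrix Plus, days 5–6) were loaded with FluoVolt (1:1000, 20 min, 37 °C) and imaged at 37 °C with 470 nm excitation and 510–560 nm emission sampled at 10 kHz. Spontaneous action potentials were recorded for 10 s at baseline and 30 min after drug, with one of four concentrations per well (n = 8).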

[3] = listed in Supplementary Table S1; no reference given; cited from earlier work
[4] = FM monolayer, read-out: CtAmp (%DD)
[5] = FM monolayer, read-out: CtD50 (%DD)
[6] = MM monolayer, read-out: CtAmp (%DD)
[7] = MM monolayer, read-out: CtD50 (%DD)
[8] = FM monolayer, read-out: APD30 (%DD)
[9] = FM monolayer, read-out: APD90 (%DD)
[10] = FM monolayer, read-out: CL (%DD)
[11] = FM monolayer, read-out: Trise (%DD)
[12] = MM monolayer, read-out: APD30 (%DD)
[13] = MM monolayer, read-out: APD90 (%DD)
[14] = MM monolayer, read-out: CL (%DD)
[15] = MM monolayer, read-out: Trise (%DD)
[16] = both FM and MM monolayers, concentration not given

Cc1[nH]c(=O)c(C#N)cc1-c1ccncc1 [Milrinone]
activity at 0.3 µM [1, 4]: 103 ± 10.9%
activity at 0.3 µM [1, 5]: 101 ± 1.7%
activity at 1 µM [1, 4]: 116 ± 13.2%
activity at 1 µM [1, 5]: 104 ± 2.4%
activity at 3 µM [1, 4]: 100 ± 8.4%
activity at 3 µM [1, 5]: 103 ± 1.7%
activity at 10 µM [1, 4]: 81 ± 5.7%
activity at 10 µM [1, 5]: 101 ± 1.7%
activity at 0.3 µM [1, 6]: 131 ± 17.5%
activity at 0.3 µM [1, 7]: 100 ± 1%
activity at 1 µM [1, 6]: 115 ± 6.3%
activity at 1 µM [1, 7]: 105 ± 1.8%
activity at 3 µM [1, 6]: 76 ± 9.1%
activity at 3 µM [1, 7]: 104 ± 1.5%
activity at 10 µM [1, 6]: 129 ± 28.5%
activity at 10 µM [1, 7]: 100 ± 1.4%
activity at 0.3 µM [2, 8]: 96 ± 1.8%
activity at 0.3 µM [2, 9]: 96 ± 1.2%
activity at 0.3 µM [2, 10]: 96 ± 1.6%
activity at 0.3 µM [2, 11]: 80 ± 13.1%
activity at 1 µM [2, 8]: 100 ± 1%
activity at 1 µM [2, 9]: 96 ± 0.7%
activity at 1 µM [2, 10]: 99 ± 0.8%
activity at 1 µM [2, 11]: 74 ± 13.3%
activity at 3 µM [2, 8]: 96 ± 1.9%
activity at 3 µM [2, 9]: 94 ± 0.4%
activity at 3 µM [2, 10]: 100 ± 0.7%
activity at 3 µM [2, 11]: 68 ± 7.3%
activity at 10 µM [2, 8]: 92 ± 2%
activity at 10 µM [2, 9]: 95 ± 1.1%
activity at 10 µM [2, 10]: 103 ± 0.6%
activity at 10 µM [2, 11]: 106 ± 26.8%
activity at 0.3 µM [2, 12]: 96 ± 1.6%
activity at 0.3 µM [2, 13]: 97 ± 1.1%
activity at 0.3 µM [2, 14]: 97 ± 0.2%
activity at 0.3 µM [2, 15]: 112 ± 18.8%
activity at 1 µM [2, 12]: 97 ± 0.7%
activity at 1 µM [2, 13]: 99 ± 0.5%
activity at 1 µM [2, 14]: 100 ± 0.6%
activity at 1 µM [2, 15]: 125 ± 11.4%
activity at 3 µM [2, 12]: 97 ± 1.4%
activity at 3 µM [2, 13]: 102 ± 1.4%
activity at 3 µM [2, 14]: 101 ± 0.5%
activity at 3 µM [2, 15]: 132 ± 27.3%
activity at 10 µM [2, 12]: 95 ± 1%
activity at 10 µM [2, 13]: 100 ± 0.9%
activity at 10 µM [2, 14]: 103 ± 0.2%
activity at 10 µM [2, 15]: 102 ± 7%
Free Cmax [3]: 2320 nM

CC(CCc1ccc(O)cc1)NCCc1ccc(O)c(O)c1 (stereo not shown) [Dobutamine]
activity at 1 µM [1, 4]: 93 ± 10.7%
activity at 1 µM [1, 5]: 79 ± 1.5%
activity at 3 µM [1, 4]: 99 ± 8.4%
activity at 3 µM [1, 5]: 75 ± 2%
activity at 10 µM [1, 4]: 82 ± 3.2%
activity at 10 µM [1, 5]: 82 ± 2.2%
activity at 1 µM [1, 6]: 101 ± 11.6%
activity at 1 µM [1, 7]: 82 ± 1.1%
activity at 3 µM [1, 6]: 89 ± 6.3%
activity at 3 µM [1, 7]: 78 ± 1.2%
activity at 10 µM [1, 6]: 98 ± 7.5%
activity at 10 µM [1, 7]: 77 ± 1.3%
activity at 1 µM [2, 8]: 84 ± 1.4%
activity at 1 µM [2, 9]: 89 ± 0.9%
activity at 1 µM [2, 10]: 76 ± 0.4%
activity at 1 µM [2, 11]: 86 ± 5.3%
activity at 3 µM [2, 8]: 77 ± 1.5%
activity at 3 µM [2, 9]: 86 ± 0.8%
activity at 3 µM [2, 10]: 77 ± 0.9%
activity at 3 µM [2, 11]: 100 ± 18.9%
activity at 10 µM [2, 8]: 90 ± 2%
activity at 10 µM [2, 9]: 91 ± 1.9%
activity at 10 µM [2, 10]: 81 ± 0.8%
activity at 10 µM [2, 11]: 131 ± 21.5%
activity at 1 µM [2, 12]: 89 ± 1.2%
activity at 1 µM [2, 13]: 91 ± 1%
activity at 1 µM [2, 14]: 75 ± 0.7%
activity at 1 µM [2, 15]: 91 ± 7.1%
activity at 3 µM [2, 12]: 85 ± 1.3%
activity at 3 µM [2, 13]: 91 ± 0.9%
activity at 3 µM [2, 14]: 76 ± 0.5%
activity at 3 µM [2, 15]: 109 ± 14.1%
activity at 10 µM [2, 12]: 86 ± 1.9%
activity at 10 µM [2, 13]: 96 ± 0.9%
activity at 10 µM [2, 14]: 81 ± 0.6%
activity at 10 µM [2, 15]: 146 ± 13.9%
effect on cycle length (in words) [2, 16]: concentration-dependent decrease
electrical activity of the monolayers at higher concentrations [2]: electrically quiescent
Free Cmax [3]: 80 nM

C=C[C@H]1C[N@@]2CC[C@H]1C[C@@H]2[C@@H](O)c1ccnc2ccc(OC)cc12 [Quinidine]
activity at 0.3 µM [1, 4]: 66 ± 15.3%
activity at 0.3 µM [1, 5]: 111 ± 6.3%
activity at 1 µM [1, 4]: 162 ± 50.3%
activity at 1 µM [1, 5]: 106 ± 1.8%
activity at 0.3 µM [1, 6]: 118 ± 21.6%
activity at 0.3 µM [1, 7]: 107 ± 2.7%
activity at 1 µM [1, 6]: 99 ± 13.1%
activity at 1 µM [1, 7]: 97 ± 2.5%
activity at 3 µM [1, 6]: 106 ± 11.4%
activity at 3 µM [1, 7]: 105 ± 1.5%
activity at 0.3 µM [2, 8]: 105 ± 2.9%
activity at 0.3 µM [2, 9]: 115 ± 2.5%
activity at 0.3 µM [2, 11]: 103 ± 14%
activity at 1 µM [2, 8]: 104 ± 1.4%
activity at 1 µM [2, 9]: 122 ± 1.4%
activity at 1 µM [2, 11]: 135 ± 8.3%
activity at 0.3 µM [2, 12]: 104 ± 1.4%
activity at 0.3 µM [2, 13]: 108 ± 1.2%
activity at 0.3 µM [2, 15]: 111 ± 15.7%
activity at 1 µM [2, 12]: 100 ± 1.2%
activity at 1 µM [2, 13]: 115 ± 0.8%
activity at 1 µM [2, 15]: 123 ± 15%
activity at 3 µM [2, 12]: 103 ± 2.1%
activity at 3 µM [2, 13]: 121 ± 1.2%
activity at 3 µM [2, 15]: 188 ± 23.3%
effect on AP rise time (Trise) (in words) [2, 16]: increased
effect on APD90 (in words) [2, 16]: increased
effect on cycle length (in words) [2, 16]: increased
electrical activity of the monolayers at higher concentrations [2]: electrically quiescent
Free Cmax [3]: 920 nM

Reference: paper PMC10135569, “Does Enhanced Structural Maturity of hiPSC-Cardiomyocytes Better for the Detection of Drug-Induced Cardiotoxicity?” (Biomolecules, 2023)
